DC50 and IC50 data for two compounds are collected here from US20260021095A1, “BIFUNCTIONAL COMPOUNDS CONTAINING PYRIDO[2,3-d]PYRIMIDIN-7(8H)-ONE DERIVATIVES FOR DEGRADING CYCLIN-DEPENDENT KINASE 2 VIA UBIQUITIN PROTEASOME PATHWAY” (NIKANG THERAPEUTICS, INC., priority 2022, published 2026).

Assay [1] concerns the target T1, CDK2 (Homo sapiens, UniProt P24941).
T1 construct: High-Throughput Measurement of Cellular Endogenous CDK2; endogenous in cells; host or cells: OVCAR3
Put plainly: High-throughput HTRF measurement of cellular endogenous CDK2 (degradation) in OVCAR3 cells. Format: cell-based. To be noted: HTRF total CDK2, read-out: DC50 OVCAR3_6 h. As to the method: Effects of compounds on cellular CDK2 level can be monitored by a high-throughput HTRF assay.
To determine half maximal degradation concentration (DC50) values of compounds, cellular CDK2 level was measured in 96-well format using HTRF total CDK2 cellular kit (Cat #64CDK2TPEG) from Cisbio.
On Day 1, OVCAR3 cells were seeded into 96-well tissue-culture treated plates at 20,000 cells/well in 200 μL and incubated overnight at 37° C. in C02 atmosphere. On Day 2 cells were treated with compounds at concentration ranging from 0.3 to 10,000 nM using HP D300 digital dispenser. […] Immediately 30 μL 1× lysis buffer was supplemented from the kit and the plate was incubated at room temperature on shaker for 30 min. After homogenization by pipetting up and down, 8 μL cell lysate from 96-well cell culture plate was transferred to 384-well small volume white detection plate. 2 μL premixed detection solution was added and the plate was covered with sealer. […] Detection plates were incubated overnight at room temperature and read on ClarioStar (BMG Labtech) in TR-FRET mode (665 nM and 620 nM). […] Half maximal degradation concentration (DC50) values were calculated with a four-parameter logistic fit using GraphPad Prism (version 8; La Jolla, CA).
On the technique in general: TR-FRET usually uses a lanthanide donor and a delayed reading to cut background.

In assay [2] the target is T1, CDK2. Put plainly: Inhibition of CDK2: phospho-Rb (S807/811) HTRF measurement in OVCAR3 cells. The format is cell-based. To be noted: 24 h compound treatment, HTRF phospho-RB S807/811, read-out: pRb OVCAR3 (μM), CDK2 IC50 in pRB(S807/811) assay. On the procedure: Phosphorylation of RB protein at S807/811 were measured using HTRF phospho-RB cellular kits (Cat #64RBS807PEG) from Cisbio.
On Day 1, OVCAR3 (CDK2 dependent cell line) cells were seeded into 96-well tissue-culture treated plates at 20,000 cells/well in 200 μL and incubated overnight at 37° C. in CO2 atmosphere. On Day 2, the cells were treated with test compounds at concentrations from 0.3 to 10,000 nM using HP D300 digital dispenser. Twenty-four hours after compound treatment, cell culture media was removed by flicking the plate and tapping the plate against clean paper towel. Immediately 30 μL 1× lysis buffer was supplemented from the kit and the plate was incubated at room temperature on shaker for 30 min. After homogenization by pipetting up and down, 8 μL cell lysate from 96-well cell culture plate was transferred to 384-well small volume white detection plate. 2 μL premixed detection solution was added and the plate was covered with sealer. […] Detection plates were incubated for 4 h at room temperature and read on ClarioStar (BMG Labtech) in TR-FRET mode ([…]). […] Half maximal inhibition concentration (IC50) values are calculated with a four-parameter logistic fit using GraphPad Prism (version 8; La Jolla, CA). […]

The DC50 is the midpoint of the concentration-degradation curve. On to `Cn1nc(N2CCC(=O)NC2=O)c2ccc(C3CCN(Cc4cccc(S(=O)(=O)N5CC[C@H](Nc6ncc7ccc(=O)n(C)c7n6)[C@H](F)C5)c4)CC3)cc21` (racemic) [compound 1, Rac-1-(6-(1-(3-(((3R,4S)-3-fluoro-4-((8-methyl-7-oxo-7,8-dihydropyrido[2,3-d]pyrimidin-2-yl)amino)piperidin-1-yl)sulfonyl)benzyl)-piperidin-4-yl)-1-methyl-1H-indazol-3-yl)-dihydropyrimidine-2,4(1H,3H)-dione], for which the DC50 on CDK2 [1] stood at 41.9 nM. Further, on CDK2 [2], the IC50 fell in the range of 0.1 to 1 µM.
On to `Cn1nc(N2CCC(=O)NC2=O)c2ccc(C3CCN(Cc4cccc(S(=O)(=O)N5CC[C@H](Nc6ncc7ccc(=O)n(CC(F)(F)F)c7n6)[C@H](F)C5)c4)CC3)cc21` (racemic) [compound 2, Rac-1-(6-(1-(3-(((3R,4S)-3-fluoro-4-((7-oxo-8-(2,2,2-trifluoroethyl)-7,8-dihydropyrido[2,3-d]pyrimidin-2-yl)amino)piperidin-1-yl)-sulfonyl)benzyl)piperidin-4-yl)-1-methyl-1H-indazol-3-yl)dihydropyrimidine-2,4(1H,3H)-dione], for which the DC50 at CDK2 [1] worked out at 1310 nM. Also, the IC50 at CDK2 [2] was in the range of 1 to 10 µM.
